Measured values taken from patent US12569467B2, “Small molecules that treat or prevent viral infections” (priority 2022, dated 2026).

Key:
HEK293 cells = details: PrestoBlue, various concentrations, within the indicated concentrations (FIG. 3E)
SARS-CoV2 spike protein = SARS-CoV2 spike protein (Severe acute respiratory syndrome coronavirus 2, UniProt P0DTC2); assay type: binding

O=C1Nc2ccccc2/C1=C\c1ccc(-c2cc(C(F)(F)F)cc(C(F)(F)F)c2)o1 [CD04872SC, 3-({5-[3,5-di(trifluoromethyl)phenyl]-2-furyl}methylidene)indolin-2-one]
cell cytotoxicity (HEK293 cells): without major cell cytotoxicity | difference of thermal stability (Tm) in presence versus absence of compound (SARS-CoV2 spike protein): about 3 Celsius degrees
